{
  "source": "patent US20180042874A1",
  "about": "“METHOD FOR TREATING OSTEOPOROSIS” (China Medical University, priority 2016, published 2018)",
  "key": {"[1]": {"test_system": "osteolytic activity of osteoclast cells induced by receptor activator of nuclear factor κB ligand", "assay": "Osteolytic activity of osteoclasts on corning osteo assay surface plate", "format": "cell-based, mouse", "settings": "10 μg/ml co-treated with 100 ng/ml RANKL, 12 days", "excerpt": "Effect of the compound of formula I on receptor activator of nuclear factor κB ligand-induced osteocytic activity of the osteoclast cells Osteoclast is a multinuclear cell, which differentiates because of the stimulation of macrophage colony stimulating factor and receptor activator of nuclear factor κB ligand, after differentiation the folds on the edge of the osteoclast form a resorption groove on the cell membrane and the bone surface is […]. In this space, the […] secretes some enzymes and acids. These acids activate the enzymes to initiate osteolysis of bone mineral matrix. […]\nIn order to confirm the effect of the compound of formula I on the bone resorption capability of differentiated osteoclasts, RAW 264.7 cells were cultured in a 24-well plate (osteo assay plate, 24 well; corning incorporated) containing artificial bone material, the cell number of each well was 2×10^3 cell/ml. […] The number of grooves per each well was counted under a microscope 40× and further photographed for observation."}, "[2]": {"test_system": "JNK", "assay": "Western blot of MAPK pathway, phosphorylated JNK", "format": "cell-based, mouse", "settings": "10 μg/ml co-treated with 100 ng/ml RANKL, 0-60 minutes", "experimental": "The effect of the compound of formula I on the protein expression of osteoclast MAPKs pathways induced by receptor activator of nuclear factor κB ligand was studied, experiments were performed by using the Western blot method; RAW 264.7 cells were rinsed in ice-cold PBS, cell lysis buffer was added, the components of the buffer solution included: 10 mM 4-(2-hydroxyethyl)-1-piperazineethanesulfonic acid (HEPES), 1.5 mM MgCl2, 0.5 mM dithiothreitol (DTT), 0.5 μg/ml leupeptin and 6.4% Nonidet P-40, reacted on ice for 15 minutes. The cells were scraped off with a spatula, collected into a 1.5 ml centrifuge tube, the cells were thoroughly broken by using a shaker; centrifuged at 12,000 rpm, 4° C. for 10 minutes; supernatant was added into a new 1.5 ml centrifuge tube; boiled with IX sodiumdodecyl sulfate (SDS) sample buffer, followed by electrophoresis using 10 to 12% SDS-PAGE. […] The transfer membrane was rinsed again and the membrane loaded with chemical luminescence reagent ECL was allowed to react with a photosensitive sheet in a darkroom for a suitable period of time, the photosensitive sheet then reacted with the developer. After the photosensitive sheet was exposed to light a band-shaped antibody-binding proteins was observed, quantified by the density of the bands. […]"}},
  "data": [
    {"smiles": "CNC(=O)N[C@]1(C)CCC[C@@]2(C)C3CC[C@@]4(C)C[C@]3(CCC21)CC4=O", "note": "(single isomer, unassigned; ent-16) [compound of formula I, ent-16-oxobeyeran-19-N-methylureido]", "values": [
      {"measurement": "eroded area of the artificial bone material", "setting": "[1]", "value": "substantially reduced"},
      {"measurement": "osteolytic activity of osteoclast cells", "setting": "[1]", "value": "inhibited"},
      {"measurement": "expression of phosphorylated JNK", "setting": "[2]", "value": "decreased"}
    ]}
  ]
}
